Reference: patent US9422318B2, “Epoxyeicosatrienoic acid analogs and methods of making and using the same” (THE MEDICAL COLLEGE OF WISCONSIN, INC., priority 2011, dated 2016)
“Also recorded” adds a separate entry of the source. Read-outs that look alike come from different tables or passages of the source.

Tests used:
[1] = system: NCCIT cells; assay: Cell viability by alamar blue assay, cisplatin with concurrent EET-A; assay type: cell-based, human; details: concurrent application of EET-A and cisplatin; NCCIT cancer cell line
Experimental: (§1) In this study, HEK293, U87MG, Hela cell-lines were obtained from the ATCC (Manassas, Va., USA) (HEK293, U87MG, Hela), and NCCIT was collected from Department of Pediatrics, UT Southwestern Medical Center at Dallas, Tex., USA. All cell lines were maintained in DMEM or RPIM with 10% fetal bovine serum and penicillin/streptomycin purchased from Life Technologies (Grand Island, N.Y., USA). Cisplatin was purchased from either Sigma (St. Louis, Mo., USA) or CalBiochem/EMD Biosciences (Billerica, Mass., USA). Cells were seeded in 96-well plates at 500 to 4,000 cells per well depends on cell type. […] Cell viability was measured by alamar blue assay using resazurin (Sigma Aldrich) according to the manufacturer's guidelines. Viability results were measured by fluorescence/absorbance in a 96-well plate reader from BMG Labtech (Cary, N.C., USA) and the IC50 was calculated by GraphPad Prism5 software (GraphPad Software Inc, La Jolla, Calif., USA).

[2] = system: cisplatin-induced nephrotoxicity in Wistar-Kyoto (WKY) rats; assay: Cisplatin-induced nephrotoxicity in rats; assay type: in vivo, rat
Excerpt: Experiments were approved and carried out according to the guidelines of the Institutional Animal Care and Use Committee, Medical College of Wisconsin, Milwaukee, USA. Male Wistar-Kyoto (WKY) rats weighing 180-200 g (Charles River, Mass., USA). All animals were kept in a temperature-controlled environment with a 12-h light/dark cycle and were allowed free access to food and water at all times. An acclimatization period of 6 days was allowed for the rats before experimentation. The rats were assigned into four groups. […] Rats received drinking water ad libitum for seven days and on day 7 DMSO (Sigma Aldrich, St. Louis, Mo., USA) was administered (300-500 μl i.p.). […] These rats are pretreated with the EET analog […].) for seven days in drinking water and then on day 7 administered CP as a single injection (7 mg/kg i.p.) followed by another five days treatment with EET-A. […] One day before the rats were sacrificed, urine of each rat was collected over a 24-h period, and the volume was measured. Five days after CP or DMSO administration, rats were anesthetized for blood sample collection followed by euthanasia and tissue collection. Urine and plasma samples were kept frozen at -80° C. until analyzed. The kidneys were removed, washed with physiological saline and stored at -80° C. until used for RT-PCR analysis, thiobarbituric acid reactive substance (TBARS) measurement and caspase 3 activity assay. […] The levels of blood urea nitrogen (BUN) (BioAssay Systems, Hayward, Calif., USA) and serum creatinine (Cayman Chemical Company, Ann Arbor, Mich., USA) were measured spectrophotometrically using commercial kits. Urinary content of creatinine and protein were measured using commercial kits (Cayman Chemical Company, Ann Arbor, Mich., USA), and the activity of urinary N-acetyl-b-glucosaminidase (NAG) in the urine was measured by a kit from Diazyme (Diazyme Laboratories, Poway, Calif., USA). While urine content of kidney injury molecule-1 (KIM-1) was measured using ELISA (R&D Systems, Inc. Minneapolis, Minn., USA). Malondialdehyde (MDA) is a thiobarbituric acid reactive substance (TBARS) that is formed as an end-product of lipid peroxidation and serves as an important index of oxidative stress. […] Using a commercially available kit (Cayman Chemical Company, Ann Arbor, Mich., USA), MDA was measured spectrophotometrically after reaction with thiobarbituric acid. […] Louis, Mo., USA). Kidney homogenate was prepared with a lysis Buffer (50 mM HEPES, pH 7.4, with 5 mM CHAPS and 5 mM DTT). […] The caspase 3 activity is expressed as nmol of AMC/min/μL. Real-Time analysis was carried out to assess the expression of oxidative (gp91phox, NOX1, SOD1, SOD2, SOD3), inflammatory (TNF-α, IL-6, apoptotic (Bax, Bak, Bcl-2) and endoplasmic reticulum stress (GRP78, caspase 12) related genes in the kidney. Total RNA was isolated from kidney homogenate using TRIzol LS reagents (Invitrogen Life Technologies, Carlsbad, Calif., USA) according to the manufacturer's instructions. The isolated RNA was treated with RNase-free DNase (Invitrogen, Carlsbad, Calif., USA) to remove traces of genomic DNA contamination. The mRNA samples were quantified by spectrophotometry at 260 nm and 1 μg of total RNA was reverse-transcribed to cDNA using iScriptTM Select cDNA Synthesis Kit (Bio-Rad, Hercules, Calif., USA). The target gene expression was quantified by iScript One-Step RT-PCR Kit with SYBR green using MyiQTM Single Color Real-Time PCR Detection System (Bio-Rad Laboratories, Hercules, Calif., USA). Each amplified sample in all wells was analyzed for homogeneity using dissociation curve analysis using iQ5 Optical System Software, Version 2.1 (Bio-Rad Laboratories, Hercules, Calif., USA). […] In analyzing the relative expression of the target genes, the Ct values were normalized to a housekeeping gene (pgk1). Statistical analyses were carried out for at least 5-7 experimental samples in each experimental group. Primers used in this study were designed based on several earlier reports. […]

[3] = system: Hela, NCCIT and U87 cancer cell lines; assay: Cell viability by alamar blue assay in cancer cell lines; assay type: cell-based, human; details: 72 h
Experimental: as §1

[4] = system: bovine coronary artery; assay: Vasorelaxant activity in bovine coronary artery rings; details: 10 μM; rings precontracted with U-46619; 100% relaxation = basal pre-U-46619 tension
Experimental: Vasorelaxant activity was measured in bovine coronary artery. Bovine hearts were obtained and the left anterior descending coronary artery was dissected and cleaned of connective tissue. Vessels of 1 mm diameter were cut into rings of 3 mm width as previously described (3, 27, 39). […] The vessels were suspended from a pair of stainless steel hooks in a 6-ml water jacketed organ chamber. […] One hook was anchored to a steel rod and the other hook to a force transducer (model FT-03C; Grass Instruments, West Warwick, R.I.). Tension of the vessel was measured by an ETH-400 bridge amplifier, and the data were acquired with a MacLab 8e analog-to-digital converter and MacLab software version 3.5.6 (AD Instruments, Milford, Mass.) and stored on a Macintosh computer for subsequent data analysis.
Basal tension was set at the length-tension maximum of 3.5 g and equilibrated for 1.5 h. KCl (40 mM) was added to the chamber until reproducible maximal contractions were maintained. […] Cumulative additions of compounds were added to the chamber. Between concentration-response curves, the chambers were rinsed with fresh Krebs buffer, 40 mM KCl was administered to determine the maximum contraction, and the vessels were rinsed. Consecutive concentration-response curves were performed with 14,15-EET followed by a concentration-response curve to a compound. The experiment was always repeated with the order of the agonists reversed. […] The relaxation was plotted versus compound concentration and the EC50 determined utilizing statistical software.

[5] = biological target: Human recombinant sEH (Homo sapiens (Human), UniProt P34913); assay: Soluble epoxide hydrolase inhibition (PHOME fluorescent substrate); assay type: biochemical
Experimental: Compounds were tested for their ability to inhibit recombinant soluble epoxide hydrolase (sEH) protein. The assay utilizes (3-Phhenyl-oxiranyl)-acetic acid cyano-(6-methoxy-naphthalen-2-yl)-methyl ester (PHOME), a sensitive substrate for sEH that can be used to monitor the activity of both human and murine enzymes. […] Human recombinant sEH was incubated with substrate and compounds ranging in concentration from 0.1 to 1000 nM.

[6] = system: Spontaneously Hypertensive Rats (SHR); assay: Telemetry blood pressure and heart rate in spontaneously hypertensive rats; assay type: in vivo, rat; details: effect maintained until end of two-week treatment
Excerpt: To accurately detect changes in blood pressure and heart rate, telemetry transmitters (Data Sciences Inc., St. Paul, Minn.) were implanted in rats one week prior to the experimental period according to manufacturer's specifications while under pentobarbital anesthesia. In brief, an incision was made to expose the femoral artery that was occluded to allow insertion of the transmitter catheter. The catheter was secured in place with tissue glue and the transmitter body was sutured in place and the incision line was closed. Rats were allowed to recover from surgery and were returned to individual housing. A baseline arterial pressure was recorded for prior to the experimental period. Mean arterial pressure was continuously recorded throughout the experimental period.
Telemetry transmitters were implanted into male SHR as described. After the surgical recovery period, baseline mean arterial pressure was recorded. In this series of experiments, EET analogs were administered by osmotic pump (2 mg/d, i.p.) and blood pressure was continuously monitored.

Chain of Human recombinant sEH (P34913 whole entry): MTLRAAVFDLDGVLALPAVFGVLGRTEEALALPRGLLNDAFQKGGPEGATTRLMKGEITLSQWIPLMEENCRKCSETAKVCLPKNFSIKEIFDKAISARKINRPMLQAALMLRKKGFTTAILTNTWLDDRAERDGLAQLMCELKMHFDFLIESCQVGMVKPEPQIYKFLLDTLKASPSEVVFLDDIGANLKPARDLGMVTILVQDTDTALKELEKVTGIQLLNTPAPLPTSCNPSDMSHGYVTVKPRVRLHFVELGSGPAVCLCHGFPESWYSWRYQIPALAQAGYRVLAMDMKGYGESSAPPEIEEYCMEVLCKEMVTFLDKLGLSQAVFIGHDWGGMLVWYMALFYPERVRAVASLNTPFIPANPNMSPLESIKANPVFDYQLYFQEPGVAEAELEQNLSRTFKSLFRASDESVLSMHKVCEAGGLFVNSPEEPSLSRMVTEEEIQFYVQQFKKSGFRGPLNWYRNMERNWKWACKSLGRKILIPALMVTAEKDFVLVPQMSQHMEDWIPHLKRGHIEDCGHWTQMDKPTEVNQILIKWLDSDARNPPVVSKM

For “Disodium (S)-2-(13-(3-pentylureido)tridec-8(Z)-enamido)succinate [EET-A]”, the “influence on cisplatin's chemotherapeutic effect” value [1] was “did not influence”, the BUN ([2]; 10 mg/kg/d p.o., cisplatin 7 mg/kg i.p., day 5 after cisplatin, vehicle 241±51) was 108 ± 30 mg/dL and the “plasma creatinine (PCr)” value ([2]; 10 mg/kg/d p.o., day 5 after cisplatin, vehicle 3.1±0.2) was 2.0 ± 0.2 mg/dL. The “kidney TBARS formation” value ([2]; 10 mg/kg/d p.o., vehicle 16±2) was 7 ± 1 µmol/g, the “reductions in renal mRNA expressions of inflammatory markers (TNF-α, IL-6, interleukin-1β)” value ([2]; cisplatin-administered rats) was 40-60% and the proteinuria ([2]; cisplatin-administered rats, vehicle 53±5) was 33 ± 8 mg/day. The “reductions in the elevated levels of serum creatinine and BUN” value ([2]; five days after cisplatin, vs. vehicle) was 30-50%, the NAG ([2]; urinary, 10 mg/kg/d p.o., vehicle 3.0±0.6) was 0.5±0.1 U/d and the KIM-1 ([2]; urinary, 10 mg/kg/d p.o., vehicle 296±94) was 85 ± 29 ng/day. The “reduction in urinary excretion of NAG and KIM-1” value ([2]; vs. cisplatin rats treated with vehicle) was 30-50%, the “reduction of cisplatin-induced proteinuria” value ([2]; vs. vehicle) was at least 40% and the “reduction in elevated renal expressions of GRP78 and caspase 12 mRNAs” value ([2]; vs. vehicle treatment) was 2-4 fold. The “decrease in kidney expression of NOX1 and gp91phox mRNAs” value ([2]; vs. vehicle-treated cisplatin rats) was 2-3 folds and the “effect on cell number / growth” value [3] was “no observable effects; also recorded: no effect”.
With `CCCCCCC(=O)N(CCCCCOc1cccc2sc(NC(C)=O)nc12)C(C)C` [Compound 30, N-(5-(2-Acetamidobenzo[d]thiazol-4-yloxy)pentyl)-N-isopropylheptanamide] the “Vascular Relax. % (10 μM)” value [4] was 96%, the IC50 ([5]; read-out: SEHi activity IC50) was over 500 nM and the IC50 ([5]; read-out: sEHi IC50) was over 500 nM. The “start of blood pressure lowering” value [6] was “within four days”.
